Results taken from patent US11814367B2, “Inhibitors of glycogen synthase 1 (GYS1) and methods of use thereof” (Maze Therapeutics, Inc., priority 2021, dated 2023).

Key:
[1] = target: hGYS2 enzyme (recombinant hGYS2/GN1 protein) (Homo sapiens (Human), UniProt P54840); assay: GYS2 coupled enzyme assay (PK/LDH); format: biochemical; conditions: geometric mean of at least 2 assay runs on separate days, read-out: Avg_IC50
Procedure, shortened: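 IC50 came from Hill fits of duplicate percent inhibition, based on control-normalized slopes of 340 nm NADH decline read each minute for 10 min. The reaction held recombinant hGYS2/GN1 (200 nM) with glycogen, UDP-glucose, G6P and PEP, plus PK/LDH coupling at pH 7.5 and 2.5% DMSO.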

[2] = system: hGYS1 enzyme / glycogen synthesis in HeLa cells; assay: GYS1 cell based assay (glycogen synthesis, Glucose-glo); design: species or system human; conditions: 24 h incubation, 20 mM glucose, geometric mean of at least 2 runs
Procedure, shortened: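 HeLa cells starved 24 h in medium containing only 1× Glutamax were plated onto compound in medium with 20 mM glucose (1% DMSO final) for 24 h, 37 °C, 5% CO2. Acid lysates were Tris-quenched, glucoamylase-digested (pH 5.3, 1 h, 37 °C) and read by Glucose-glo luminescence. IC50 came from Hill fits, as geometric mean of ≥2 runs.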

[3] = target: hGYS1 enzyme (recombinant hGYS1/GN1 protein) (Homo sapiens (Human), UniProt P13807); assay: GYS1 coupled enzyme assay (PK/LDH); format: biochemical; conditions: hGYS1/GN1 50 nM, UDP-Glucose 0.8 mM, G6P 1 mM; geometric mean of at least 2 runs
Sequence of hGYS1 enzyme (recombinant hGYS1/GN1 protein) (P13807 whole entry): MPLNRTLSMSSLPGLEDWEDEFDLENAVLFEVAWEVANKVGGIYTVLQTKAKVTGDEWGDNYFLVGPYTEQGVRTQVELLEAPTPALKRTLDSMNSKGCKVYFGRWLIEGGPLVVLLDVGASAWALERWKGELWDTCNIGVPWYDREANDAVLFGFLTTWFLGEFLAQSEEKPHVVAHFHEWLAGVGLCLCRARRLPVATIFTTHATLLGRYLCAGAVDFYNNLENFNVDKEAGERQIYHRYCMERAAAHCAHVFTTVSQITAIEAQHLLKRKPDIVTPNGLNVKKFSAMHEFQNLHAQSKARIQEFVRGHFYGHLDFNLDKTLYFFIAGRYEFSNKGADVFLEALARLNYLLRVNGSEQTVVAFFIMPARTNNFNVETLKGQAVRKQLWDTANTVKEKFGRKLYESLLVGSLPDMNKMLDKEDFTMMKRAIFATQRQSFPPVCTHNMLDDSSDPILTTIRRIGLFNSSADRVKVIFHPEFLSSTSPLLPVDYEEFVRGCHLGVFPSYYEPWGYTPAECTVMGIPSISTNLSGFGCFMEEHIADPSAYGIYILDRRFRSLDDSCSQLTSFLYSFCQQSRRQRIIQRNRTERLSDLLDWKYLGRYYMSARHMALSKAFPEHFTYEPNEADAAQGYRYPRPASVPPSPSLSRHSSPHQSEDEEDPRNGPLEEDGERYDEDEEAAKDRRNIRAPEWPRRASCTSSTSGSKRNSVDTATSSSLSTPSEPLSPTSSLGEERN
Sequence of hGYS1 enzyme (recombinant hGYS1/GN1 protein) (P46976 whole entry partner): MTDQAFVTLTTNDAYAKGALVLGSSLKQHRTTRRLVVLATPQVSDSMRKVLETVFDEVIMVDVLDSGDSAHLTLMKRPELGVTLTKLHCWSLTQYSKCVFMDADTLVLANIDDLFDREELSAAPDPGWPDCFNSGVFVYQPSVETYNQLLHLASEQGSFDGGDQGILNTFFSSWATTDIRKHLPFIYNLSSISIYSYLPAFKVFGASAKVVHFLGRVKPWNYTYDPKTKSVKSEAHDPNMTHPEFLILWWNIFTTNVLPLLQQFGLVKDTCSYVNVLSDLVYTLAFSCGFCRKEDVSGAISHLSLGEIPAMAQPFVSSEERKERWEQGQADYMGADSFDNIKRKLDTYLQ

Sequence of hGYS2 enzyme (recombinant hGYS2/GN1 protein) (P54840 whole entry): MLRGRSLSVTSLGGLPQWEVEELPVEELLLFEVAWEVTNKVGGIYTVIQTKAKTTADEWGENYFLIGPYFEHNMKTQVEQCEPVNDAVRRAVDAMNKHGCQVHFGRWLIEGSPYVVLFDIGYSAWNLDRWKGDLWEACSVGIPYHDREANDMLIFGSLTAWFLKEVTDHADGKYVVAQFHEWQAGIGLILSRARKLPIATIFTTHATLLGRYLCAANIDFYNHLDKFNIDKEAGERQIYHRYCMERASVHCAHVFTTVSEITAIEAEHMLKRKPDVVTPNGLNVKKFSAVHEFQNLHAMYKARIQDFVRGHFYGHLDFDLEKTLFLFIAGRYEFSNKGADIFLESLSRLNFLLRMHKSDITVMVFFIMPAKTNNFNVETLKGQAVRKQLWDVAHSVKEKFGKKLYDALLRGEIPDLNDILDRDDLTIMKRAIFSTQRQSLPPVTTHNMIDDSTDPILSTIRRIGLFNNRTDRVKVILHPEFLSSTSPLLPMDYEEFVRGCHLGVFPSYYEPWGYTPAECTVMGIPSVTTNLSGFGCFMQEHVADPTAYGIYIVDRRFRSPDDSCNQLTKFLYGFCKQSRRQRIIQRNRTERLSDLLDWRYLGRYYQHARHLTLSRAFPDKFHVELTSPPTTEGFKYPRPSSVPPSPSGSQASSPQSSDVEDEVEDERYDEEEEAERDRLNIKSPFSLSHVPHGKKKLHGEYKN
Sequence of hGYS2 enzyme (recombinant hGYS2/GN1 protein) (P46976 whole entry partner): as the sequence (P46976 whole entry partner) above

| Structure (SMILES) | IC50 [1] [µM] | IC50 ([2]; Homo sapiens, HeLa, 24 h) [µM] | IC50 [3] [µM] | IC50 [2] [µM] | IC50 ([2]; Homo sapiens) [µM] |
| --- | --- | --- | --- | --- | --- |
| CC(C)c1ccc([C@@H](NC(=O)[C@@H]2C[C@@H](F)CN2C(=O)Cn2ncc(N3CC(F)(F)C3)n2)c2ccccc2)nc1F [Compound 413, (2S,4R)-1-{2-[4-(3,3-difluoroazetidin-1-yl)-2H-1,2,3-triazol-2-yl]acetyl}-4-fluoro-N-[(S)-[6-fluoro-5-(propan-2-yl)pyridin-2-yl](phenyl)methyl] pyrrolidine-2-carboxamide] | > 100 | 0.16 | 0.006 | – | – |
| Cn1c(=O)ccn(CC(=O)N2C[C@H](F)C[C@H]2C(=O)N[C@@H](c2ccccc2)c2ccc(C3(C)CC3)c(F)c2)c1=O [Compound 569, (2S,4R)-4-fluoro-N-[(S)-[3-fluoro-4-(1-methylcyclopropyl)phenyl](phenyl)methyl]-1-[2-(3-methyl-2,4-dioxo-1,2,3,4-tetrahydropyrimidin-1-yl)acetyl]pyrrolidine-2-carboxamide] | > 100 | 0.96 | 0.066 | – | – |
| CC(C)c1ccc([C@@H](NC(=O)[C@@H]2C[C@@H](F)CN2C(=O)Cn2nncc2C(F)(F)F)c2ccccc2)cc1F [Compound 322, (2S,4R)-4-fluoro-N—((S)-(3-fluoro-4-isopropylphenyl)(phenyl)methyl)-1-(2-(5-(trifluoromethyl)-1H-1,2,3-triazol-1-yl)acetyl)pyrrolidine-2-carboxamide] | > 100 | 0.29 | 0.013 | – | – |
| CC(C)c1ccc([C@@H](NC(=O)[C@@H]2C[C@@H](F)CN2C(=O)CCn2nc3ccccn3c2=O)c2ccccc2)nc1F [Compound 780, (2S,4R)-4-fluoro-N-[(S)-[6-fluoro-5-(propan-2-yl)pyridin-2-yl](phenyl)methyl]-1-{3-{3-oxo-2H,3H-[1,2,4]triazolo[4,3-a]pyridin-2-yl}propanoyl)pyrrolidine-2-carboxamide] | > 100 | 0.28 | 0.009 | – | – |
| Cc1cc(C(NC(=O)[C@@H]2C[C@@H](F)CN2C(=O)Cc2cnn[nH]2)c2ccccc2)ncc1C(C)C (single isomer, unassigned) [Compound 604, (2S,4R)-4-fluoro-N-[(S) or (R)-[4-methyl-5-(propan-2-yl)pyridin-2-yl](phenyl)methyl]-1-[2-(1H-1,2,3-triazol-5-yl)acetyl]pyrrolidine-2-carboxamide] | > 100 | 1.59 | 0.176 | – | – |
| CC(C)c1ccc([C@@H](NC(=O)[C@@H]2C[C@@H](F)CN2C(=O)Cc2noc(=O)n2C)c2ccccc2)nc1F [Compound 402, (2S,4R)-4-fluoro-N-[(S)-[6-fluoro-5-(propan-2-yl)pyridin-2-yl](phenyl)methyl]-1-[2-(4-methyl-5-oxo-4,5-dihydro-1,2,4-oxadiazol-3-yl)acetyl]pyrrolidine-2-carboxamide] | > 100 | 0.85 | 0.059 | – | – |
| Cn1nc(CC(=O)N2C[C@H](F)C[C@H]2C(=O)N[C@@H](c2ccccc2)c2ccc(C3(C)CC3)c(F)n2)c2ccccc21 [Compound 596, (2S,4R)-4-fluoro-N-[(S)-[6-fluoro-5-(1-methylcyclopropyl)pyridin-2-yl](phenyl)methyl]-1-[2-(1-methyl-1H-indazol-3-yl)acetyl]pyrrolidine-2-carboxamide] | > 96.7 | 0.28 | 0.02 | – | – |
| CC(C)c1ccc([C@@H](NC(=O)[C@@H]2C[C@@H](F)CN2C(=O)Cn2cnc3ccccc32)c2ccccc2)nc1F [Compound 389, (2S,4R)-1-[2-(1H-1,3-benzodiazol-1-yl)acetyl]-4-fluoro-N-[(S)-[6-fluoro-5-(propan-2-yl)pyridin-2-yl](phenyl)methyl] pyrrolidine-2-carboxamide] | > 90.3 | 0.05 | 0.004 | – | – |
| Cc1nn(CC(=O)N2C[C@H](F)C[C@H]2C(=O)N[C@@H](c2ccccc2)c2ccc(C(C)C)cn2)c(=O)o1 [Compound 275, (2S,4R)-4-fluoro-1-[2-(5-methyl-2-oxo-2,3-dihydro-1,3,4-oxadiazol-3-yl)acetyl]-N-N-[(S)-phenyl[5-(propan-2-yl)pyridin-2-yl]methyl]pyrrolidine-2-carboxamide] | > 100 | 1.05 | 0.076 | – | – |
| Cc1nn(CC(=O)N2C[C@H](F)C[C@H]2C(=O)N[C@@H](c2ccccc2)c2ccc(C(C)C)cc2)c(=O)o1 [Compound 236, (2S,4R)-4-fluoro-1-[2-(5-methyl-2-oxo-2,3-dihydro-1,3,4-oxadiazol-3-yl)acetyl]-N-[(S)-phenyl[4-(propan-2-yl)phenyl]methyl]pyrrolidine-2-carboxamide] | > 100 | 0.81 | 0.058 | – | – |
| O=C(N[C@@H](c1ccccc1)c1ccc(C2CC2)c(F)c1)[C@@H]1C[C@@H](F)CN1C(=O)Cc1n[nH]c(=O)[nH]1 [Compound 491, (2S,4R)-N-[(S)-(4-cyclopropyl-3-fluorophenyl)(phenyl)methyl]-4-fluoro-1-[2-(5-oxo-4,5-dihydro-1H-1,2,4-triazol-3-yl)acetyl]pyrrolidine-2-carboxamide] | > 100 | 5.55 | 0.093 | – | – |
| CCn1c(=O)c(C)cn(CC(=O)N2C[C@H](F)C[C@H]2C(=O)N[C@@H](c2ccccc2)c2ccc(C(C)C)c(F)n2)c1=O [Compound 794, (2S,4R)-1-[2-(3-ethyl-5-methyl-2,4-dioxo-1,2,3,4-tetrahydropyrimidin-1-yl)acetyl]-4-fluoro-N-[(S)-[6-fluoro-5-(propan-2-yl)pyridin-2-yl](phenyl)methyl] pyrrolidine-2-carboxamide] | > 100 | 0.04 | 0.002 | – | – |
| CC(C)c1ccc([C@@H](NC(=O)[C@@H]2C[C@@H](F)CN2C(=O)C(O)c2cnn[nH]2)c2ccccc2)cc1F (single isomer, unassigned) [Compound 774, (2S,4R)-4-fluoro-N-[(S)-[3-fluoro-4-(propan-2-yl)phenyl](phenyl)methyl]-1-[(2S) or (2R)-2-hydroxy-2-(1H-1,2,3-triazol-5-yl)acetyl]pyrrolidine-2-carboxamide] | > 100 | – | 0.022 | 0.19 | – |
| Cc1cnnn1CC(=O)N1C[C@H](F)C[C@H]1C(=O)N[C@@H](c1ccccc1)c1ccc(C(C)C)c(F)c1 [Compound 374, (2S,4R)-4-fluoro-N-[(S)-[3-fluoro-4-(propan-2-yl)phenyl](phenyl)methyl]-1-[2-(5-methyl-1H-1,2,3-triazol-1-yl)acetyl]pyrrolidine-2-carboxamide] | > 100 | 0.36 | 0.022 | – | – |
| Cc1cn(CC(=O)N2C[C@H](F)C[C@H]2C(=O)N[C@@H](c2ccccc2)c2ccc(C(C)C)c(F)c2)nn1 [Compound 373, (2S,4R)-4-fluoro-N-[(S)-[3-fluoro-4-(propan-2-yl)phenyl](phenyl)methyl]-1-[2-(4-methyl-1H-1,2,3-triazol-1-yl)acetyl]pyrrolidine-2-carboxamide] | > 100 | 0.21 | 0.014 | – | – |
| CC(C)c1c(F)cc([C@@H](NC(=O)[C@@H]2C[C@@H](F)CN2S(=O)(=O)Cc2cnn[nH]2)c2ccccc2)cc1F [Compound 659, (2S,4R)-1-(((1H-1,2,3-triazol-5-yl)methyl)sulfonyl)-N—((S)-(3,5-difluoro-4-isopropylphenyl)(phenyl)methyl)-4-fluoropyrrolidine-2-carboxamide] | 17.5 | – | 0.331 | – | 4.35 |
